The source of these data is patent US11377425B1, “Small molecule modulators of IL-17” (LEO Pharma A/S, priority 2018, dated 2022).

The assay has as its target T1, human IL-17AA (Homo sapiens, UniProt Q16552).
T1 construct: host or cells: HEK (human embryonic kidney) cells
T1 sequence (Q16552 24-155): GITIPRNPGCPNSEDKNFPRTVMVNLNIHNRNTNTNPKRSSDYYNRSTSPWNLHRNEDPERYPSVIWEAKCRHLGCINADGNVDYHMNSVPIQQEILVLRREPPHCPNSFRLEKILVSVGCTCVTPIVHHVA
The assay can be described thus: IL-8 release assay in human epithelial keratinocytes adult (HEKa). It is filed as cell-based. To be noted: HEKa cells, 3 ng/mL HEK-human IL-17AA + 10 ng/mL human TNFalpha; read-out: Rel EC50 IL-8 release assay. In outline:
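Adult human epidermal keratinocytes stimulated 68-72 h at 37 °C with 3 ng/mL HEK-derived human IL-17AA plus 10 ng/mL TNF-alpha (final) in the presence of compound; TNF-alpha alone defines 100% inhibition. Secreted IL-8 measured by HTRF as percent of controls; relative IC50/Emax from four-parameter fit (r^2>0.9), cytotoxicity by PrestoBlue.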

Regarding `Cc1[nH]ncc1-c1ccc(NC(=O)[C@@H](NC(=O)c2ccnn2C)C(c2ccccc2)c2ccccc2)cc1` [Example 400, N-[(1S)-1-Benzhydryl-2-[4-(3-methyl-1H-pyrazol-4-yl)anilino]-2-oxo-ethyl]-2-methyl-pyrazole-3-carboxamide], the EC50 (in general, the concentration that produces a half-maximal response) fell in the range of 0.1 to 1 µM.

Consider `Cc1n[nH]c(C)c1-c1ccc(NC(=O)C(NC(=O)c2ccnn2C(C)C)C(C2CC2)C2CC2)cc1` (single isomer, unassigned) [Example 33, N-[1-(dicyclopropylmethyl)-2-[4-(3,5-dimethyl-1H-pyrazol-4-yl)anilino]-2 oxo-ethyl]-2-isopropyl-pyrazole-3-carboxamide], for which the EC50 is above 1 µM.

Regarding `Cc1n[nH]c(C)c1-c1ccc(NC(=O)[C@@H](NC(=O)c2ccnn2C(C)CO)C(C)C(C)(C)C)cc1` (single isomer, unassigned) [Example 176], the concentration for a half-maximal effect (EC50) lay in the range of 0.1 to 1 µM.

`CNc1[nH]nc(C)c1-c1ccc(NC(=O)[C@@H](NC(=O)c2ccnn2C)C2CCCCC2)cc1` [Example 452, N-[(1S)-1-cyclohexyl-2-[4-[5-methyl-3-(methylamino)-1H-pyrazol-4-yl]anilino]-2-oxo-ethyl]-2-methyl-pyrazole-3-carboxamide]: the concentration for a half-maximal effect (EC50) was above 1 µM.

As to `Cc1nn(COP(=O)(O)O)c(C)c1-c1ccc(NC(=O)[C@@H](NC(=O)c2ccnn2[C@@H](C)CO)C(C2CC2)C2CC2)cc1` [Example 483, Disodium [4-[4-[[(2S)-3,3-dicyclopropyl-2-[[2-[(1S)-2-hydroxy-1-methyl-ethyl]pyrazole-3-carbonyl]amino]propanoyl]amino]phenyl]-3,5-dimethyl-pyrazol-1-yl]methyl phosphate], the concentration giving a half-maximal response (EC50) was below 0.1 µM.

On to `Cc1n[nH]c(C)c1-c1ccc(NC(=O)[C@@H](NC(=O)c2ccnn2C)C2CCCCC2(C)C)cc1` (stereo partly drawn) [Example 230, N-[(1S)-1-(2,2-dimethylcyclohexyl)-2-[4-(3,5-dimethyl-1H-pyrazol-4-yl)anilino]-2-oxo-ethyl]-2-methyl-pyrazole-3-carboxamide], for which the EC50 is below 0.1 µM.

In the case of `Cc1n[nH]c(C)c1-c1ccc(NC(=O)[C@@H](NC(=O)c2ccnn2C)[C@H]2CCCc3ccc(Br)cc32)cc1` [Example 6, N-[(1S)-1-[(1S)-7-bromotetralin-1-yl]-2-[4 (3,5-dimethyl-1H-pyrazol-4-yl)anilino]-2-oxo-ethyl]-2-methyl-pyrazole-3-carboxamide], the EC50 was below 0.1 µM.

For the compound `Cn1cncc1-c1ccc(NC(=O)[C@@H](NC(=O)OC(C)(C)C)C(c2ccccc2)c2ccccc2)cc1` [Example 101, tert-butyl N-[(1S)-1-benzhydryl-2-[4-(3-methylimidazol-4-yl)anilino]-2-oxo-ethyl]carbamate], the EC50 is above 1 µM.

As to `Cn1cncc1-c1ccc(NC(=O)[C@@H](NC(=O)c2ccnn2C)[C@@H]2CCc3ccccc32)cc1` [Example 376, N-[(1S)-1-[(1R)-indan-1-yl]-2-[4-(3-methylimidazol-4-yl)anilino]-2-oxo-ethyl]-2-methyl-pyrazole-3-carboxamide], the EC50 was above 1 µM.

On to `Cc1n[nH]c(C)c1-c1ccc(NC(=O)[C@@H](NC(=O)N(C)CCO)C2CCCCC2)cc1` [Example 463, (2S)-2-cyclohexyl-N-[4-(3,5-dimethyl-1H-pyrazol-4-yl)phenyl]-2-[[2-hydroxyethyl(methyl)carbamoyl]amino]acetamide], for which the EC50 was above 1 µM.

As to `Cn1cncc1-c1ccc(NC(=O)[C@@H](NC(=O)c2ccnn2C)C2CCCCC2)cc1` [Example 343, N-[(1S)-1-cyclohexyl-2-[4-(3-methylimidazol-4-yl)anilino]-2-oxo-ethyl]-2-methyl-pyrazole-3-carboxamide], the EC50 is above 1 µM.

`Cc1n[nH]c(C)c1-c1ccc(NC(=O)[C@@H](NC(=O)C2(F)CC2)C2CCC(F)(F)CC2)cc1` [Example 67, N-[(1S)-1-(4,4-difluorocyclohexyl)-2-[4-(3,5-dimethyl-1H-pyrazol-4-yl)anilino]-2-oxo-ethyl]-1-fluoro-cyclopropanecarboxamide]: the concentration giving a half-maximal response (EC50) is above 1 µM.

With `Cc1n[nH]c(C)c1-c1ccc(NC(=O)[C@@H](NC(=O)c2ccnn2C)C2CCCC2(C)C)cc1` (stereo partly drawn) [Example 231, N-[(1S)-1-(2,2-dimethylcyclopentyl)-2-[4-(3,5-dimethyl-1H-pyrazol-4-yl)anilino]-2-oxo-ethyl]-2-methyl-pyrazole-3-carboxamide], the concentration for a half-maximal effect (EC50) is below 0.1 µM.

Regarding `CCc1n[nH]c(CC)c1-c1ccc(NC(=O)[C@@H](NC(=O)c2ccnn2C)C(C2CC2)C2CC2)cc1` [Example 398, N-[(1S)-1-(dicyclopropylmethyl)-2-[4-(3,5-diethyl-1H-pyrazol-4-yl)anilino]-2-oxo-ethyl]-2-methyl-pyrazole-3-carboxamide], the half-maximal effective concentration (EC50) is below 0.1 µM.

Take `Cn1cncc1-c1ccc(NC(=O)C(NC(=O)c2ccnn2C)C(c2cccc(F)c2)c2cccc(F)c2)cc1` (single isomer, unassigned) [Example 374A, N-(1,1-Bis(3-Fluorophenyl)-3-((4-(1-methyl-1H-imidazol-5-yl)phenyl)amino)-3-oxopropan-2-yl)-1-methyl-1H-pyrazole-5-carboxamide]: the half-maximal effective concentration (EC50) is above 1 µM.

Consider `Cc1n[nH]c(C)c1-c1ccc(NC(=O)[C@@H](NC(=O)c2ccnn2C(C)(C)C)C2CCCCC2)cc1` [Example 8, 2-tert-butyl-N-[(1S)-1-cyclohexyl-2-[4-(3,5-dimethyl-1H-pyrazol-4-yl)anilino]-2-oxo-ethyl]pyrazole-3-carboxamide], for which the half-maximal effective concentration (EC50) is above 1 µM.

For the compound `Cc1n[nH]c(C)c1-c1ccc(NC(=O)[C@@H](NC(=O)c2ccnn2C(C)C)C2CCC3(CC2)CC3)cc1` [Example 112, N-[(1S)-2-[4-(3,5-dimethyl-1H-pyrazol-4-yl)anilino]-2-oxo-1-spiro[2.5]octan-6-yl-ethyl]-2-isopropyl-pyrazole-3-carboxamide], the EC50 is below 0.1 µM.

Take `Cc1n[nH]c(C(C)O)c1-c1ccc(NC(=O)[C@@H](NC(=O)OC(C)(C)C)C2CCCCC2)cc1` (stereo partly drawn) [Example 433, Tert-butyl N-[(1S)-1-cyclohexyl-2-[4-[5-(1-hydroxyethyl)-3-methyl-1H-pyrazol-4-yl]anilino]-2-oxo-ethyl]carbamate]: the EC50 is above 1 µM.

Regarding `CCn1nncc1C(=O)N[C@H](C(=O)Nc1ccc(-c2c(C)n[nH]c2C)cc1)[C@H]1CC[C@H](C)CC1` [Example 149, N-[(1S)-2-[4-(3,5-dimethyl-1H-pyrazol-4-yl)anilino]-1-(4-methylcyclohexyl)-2-oxo-ethyl]-3-ethyl-triazole-4-carboxamide], the EC50 is 0.1 to 1 µM.

Turning to `Cc1n[nH]c(C)c1-c1ccc(NC(=O)[C@@H](NC(=O)c2ccnn2C)C(C)C2CCC2)cc1` (single isomer, unassigned) [Example 195], the EC50 fell in the range of 0.1 to 1 µM.

Regarding `Cc1n[nH]c(C)c1-c1ccc(NC(=O)[C@@H](NC(=O)c2ccnn2C)[C@@H]2CCc3ccccc32)cc1` [Example 76, N-[(1S)-2-[4-(3,5-dimethyl-1H-pyrazol-4-yl)anilino]-1-[(1R)-indan-1-yl]-2-oxo-ethyl]-2-methyl-pyrazole-3-carboxamide], the half-maximal effective concentration (EC50) was in the range of 0.1 to 1 µM.

As to `Cc1n[nH]c(C)c1-c1ccc(NC(=O)[C@H](NC(=O)c2ccnn2C)C2CCCCC2)cc1` [Example 103, N-[(1R)-1-cyclohexyl-2-[4-(3,5-dimethyl-1H-pyrazol-4-yl)anilino]-2-oxo-ethyl]-2-methyl-pyrazole-3-carboxamide], the EC50 is above 1 µM.

With `CC[C@@H](C)[C@H](NC(=O)c1ccnn1C)C(=O)Nc1ccc(-c2c(C)n[nH]c2C)cc1` [Example 113], the EC50 is above 1 µM.
